# Reference: PMC8537953 (Viruses, 2021)
# System: SARS-CoV-2
# Format: cell-based
compound,measurement,value
"CC(N)C12CC3CC(CC(C3)C1)C2 (stereo not shown) [Rimantadine, rimantadine]",% of culture cells infected,≥ 80%
